In patent US20240216315A1, “METHODS AND COMPOSITIONS FOR TREATMENT OF DIABETIC RETINOPATHY AND RELATED CONDITIONS” (Ocuphire Pharma, Inc., priority 2021, published 2024):

Assays:
[1] = Phase 2 clinical study, safety: blood chemistry (alanine and aspartate aminotransferase in subjects' blood); format: in vivo, human; conditions: combined placebo and Compound 1 patients
Text: (§1) The study is to be configured as a placebo-controlled, double-masked, randomized, Phase 2 study in approximately 100 subjects with moderately severe to severe NPDR (diabetic retinopathy severity score [DRSS] Level 47 or 53, see FIG. 1) or mild PDR (DRSS Level 61), evaluating safety and efficacy following administration of Compound 1 twice daily for 24 weeks. The study will have a 1:1 randomization (placebo: Compound 1). Randomization will be stratified by level of disease severity (NPDR or PDR). Subjects with mild PDR will be capped at 20% for each arm. Efficacy evaluations at 12 and/or 24 weeks will include DRSS, center-involved diabetic macular edema (DME), moderate PDR or PDR-related adverse events (AEs), best-corrected visual acuity (BCVA), and central subfield thickness (CST). Further experimental procedures and results are described below.
(§2) At the Qualification/Baseline (Visit 2, Day 1): • The subject will be randomized into the study. • Study medication will be dispensed in accordance with the subjects randomized treatment arm. • Blood samples will be drawn pre-dose for baseline levels and on Visit 9 (Week 24) for exploratory biomarker processing (i.e., cytokine and Ref-1 levels) to evaluate pharmacodynamic properties. • Subjects will be instructed to administer their study medication (APX3330 or placebo) cach day, with 3 tablets every morning and 2 tablets every evening. Study medication should be taken at approximately the same time each day and may be taken with or without food.
At the Second Treatment Visit (Visit 6, Week 12±2 Days), subjects will return to the site for the following series of safety and efficacy assessments: drug accountability, concomitant medications, urine pregnancy test (only for women of childbearing potential), HR/BP/vital signs, BCVA (ETDRS), DRSS, CST (SD-OCT), blood draw for PK, blood chemistry, blood hematology, biomicroscopy, ophthalmoscopy, IOP, eGFR, and AEs. Following the completion of the assessments, used medication kits will be collected for accountability (by counting the number of unused tablets), and new study medication kits will be dispensed.
At the Third Treatment Visit (Visit 9, Week 24±2 Days), subjects will return to the site for the following series of safety and efficacy assessments: drug accountability, concomitant medications, urine pregnancy test (only for women of childbearing potential), physical examination, HR/BP/vital signs, BCVA (ETDRS), DRSS, CST (SD-OCT), blood chemistry, blood hematology, biomicroscopy, ophthalmoscopy, IOP, cGFR, AEs, and blood draw for exploratory biomarkers (ELISA, cytokine panel, comprehensive metabolic panel). Visit 9 (Week 24) is the end of the treatment period. Study medication will be returned for accountability (by counting the number of unused tablets), and no further study medication will be dispensed.
Study subjects will receive study medication as set forth in Table 1 according to the Treatment Group to which the subject is assigned. Subjects will be instructed to take study medication at approximately the same time each day, and the medication may be taken with or without food. […]

[2] = Phase 2 clinical study, safety: treatment-emergent adverse events; format: in vivo, human
Text: as §1, §2
Telephone safety calls will be conducted for Visit 3 (Week 1±2 Days), Visit 5 (Week 8±2 Days), Visit 7 (Week 16±2 Days), and Visit 8 (Week 20±2 Days). The safety assessment will include review of drug compliance, concomitant medications, AEs, and urine pregnancy test at home (only for women of childbearing potential).
Study subjects will receive study medication as set forth in Table 1 according to the Treatment Group to which the subject is assigned. […]

## CCCCCCCCC/C(=C\C1=C(C)C(=O)C(OC)=C(OC)C1=O)C(=O)O [Compound 1, (E)-2-((4,5-dimethoxy-2-methyl-3,6-dioxocyclohexa-1,4-dien-1-yl)methylene)undecanoic acid]
[1]; week 12, 50 subjects
  change in mean concentration of alanine aminotransferase in subjects' blood relative to Baseline: −0.8 IU/L
  change in mean concentration of aspartate aminotransferase in subjects' blood relative to Baseline: −0.5 IU/L
  reduction in mean concentration of alanine aminotransferase in subjects' blood relative to Baseline: 3.6%
  reduction in mean concentration of aspartate aminotransferase in subjects' blood relative to Baseline: 3%
[1]; week 24, 22 subjects
  change in mean concentration of alanine aminotransferase in subjects' blood relative to Baseline: −2.1 IU/L
  change in mean concentration of aspartate aminotransferase in subjects' blood relative to Baseline: −1.8 IU/L
  reduction in mean concentration of alanine aminotransferase in subjects' blood relative to Baseline: 9.4%
  reduction in mean concentration of aspartate aminotransferase in subjects' blood relative to Baseline: 9%
[2]; Compound 1 administered orally according to the study protocol (600 mg/day)
  safety profile in the patient population enrolled: good safety profile
[2]; from the 100 subjects enrolled, combined placebo and Compound 1 patients
  total of treatment-emergent adverse events observed: 83
[2]; of 100 subjects enrolled, combined placebo and Compound 1 patients
  subjects that reported at least one treatment-emergent adverse event: 41
